Key:
Farage = assay: Combination study, ATPLite 72 h, dose matrix (Synergy Score, CI50); conditions: Farage
SU-DHL-6-epst = assay: Combination study of Compound 1 or CAL-101 and a second therapeutic agent (Synergy Score, CI50); format: cell-based
SU-DHL-10-epst = assay: Combination study, ATPLite 72 h, dose matrix (Synergy Score, CI50)
RL = assay: as above
WSU-NHL = assay: as above
Protocol: (§1) Cells are thawed from a liquid nitrogen preserved state. Once cells have been expanded and divide at their expected doubling times, screening begins. Cells are seeded in growth media in either black 1536-well or 384-well tissue culture treated plates. Cells are then equilibrated in assay plates via centrifugation and placed in incubators attached to the Dosing Modules at 37° C. for 24 hours before treatment. […] These Tzero (To) plates are read using ultra-sensitive luminescence on Envision plate readers (Perkin Elmer). Treated assay plates are incubated with compound for 72 hours. After 72 hours, plates are developed for endpoint analysis using ATPLite. All data points are collected via automated processes, quality controlled and analyzed using Zalicus software.
(§2) where T is treated cell count and V is untreated (vehicle) cell count (at 72 hours). I ranges from 0% (when T=V) to 100% (when T=0). […] The measure of effect in the experiment can be the inhibition of cellular response relative to the untreated level (vehicle alone). […] The inhibition ranges from 0% at the untreated level to 100% when T=0. Inhibition levels are negative for agents that actually increase levels. Other effect measures, such as an activity ratio r=T/V may be more appropriate for some assays. When activity ratios (e.g, fold increase over stimulated control) are being used, the effect can be measured using an induction 1=ln(T/V). With this definition, all effect expressions are the same as for inhibition.
(§3) Growth Inhibition (GI) is used as a measure of cell viability. […] A GI reading of 100% represents complete growth inhibition—T72 compound-treated and T0 vehicle signals are matched. […] A GI reading of 200% represents complete death of all cells in the culture well. Compounds reaching an activity plateau of GI 200% are considered cytotoxic. GI is calculated by applying the following test and equation:
(§4) Combination analysis data were collected in a 6×6 dose matrix. Synergy is calculated by comparing a combination's response to those of its single compound, against the drug-with-itself dose-additive reference model. Deviations from dose additivity may be assessed visually on an isobologram or numerically with a Combination Index (CI). […] Additive effect is CI=1.0. […] Antagonistic effect is CI>1.0.
(§5) To measure combination effects in excess of Loewe additivity, a scalar measure to characterize the strength of synergistic interaction termed the Synergy Score is devised. The Synergy Score is calculated as:
(§6) The fractional inhibition for each component agent and combination point in the matrix is calculated relative to the median of all vehicle-treated control wells. The Synergy Score equation integrates the experimentally-observed activity volume at each point in the matrix in excess of a model surface numerically derived from the activity of the component agents using the Loewe model for additivity. Additional terms in the Synergy Score equation (above) are used to normalize for various dilution factors used for individual agents and to allow for comparison of synergy scores across an entire experiment. The inclusion of positive inhibition gating or an Idata multiplier removes noise near the zero effect level, and biases results for synergistic interactions at that occur at high activity levels.
(§7) Loewe Volume (Loewe Vol) is used to assess the overall magnitude of the combination interaction in excess of the Loewe additivity model. Loewe Volume is particularly useful when distinguishing synergistic increases in a phenotypic activity (positive Loewe Volume) versus synergistic antagonisms (negative Loewe Volume). […] This model defines additivity as a non-synergistic combination interaction where the combination dose matrix surface should be indistinguishable from either drug crossed with itself.

SU-DHL-4-epst = assay: as above
OCI-Ly7 = assay: as above
DOHH-2 = assay: as above
Protocol: as §1
The measure of effect in the experiment can be the inhibition of cellular response relative to the untreated level (vehicle alone). […] The inhibition ranges from 0% at the untreated level to 100% when T=0. Inhibition levels are negative for agents that actually increase levels.
as §3, §4, §5, §6
Loewe Volume (Loewe Vol) is used to assess the overall magnitude of the combination interaction in excess of the Loewe additivity model. Loewe Volume is particularly useful when distinguishing synergistic increases in a phenotypic activity (positive Loewe Volume) versus synergistic antagonisms (negative Loewe Volume). […] This model defines additivity as a non-synergistic combination interaction where the combination dose matrix surface should be indistinguishable from either drug crossed with itself. The calculation for Loewe additivity is:

KARPAS-422 = assay: as above
Protocol: as §1, §2, §3, §4, §5, §6, §7

CC[C@H](Nc1ncnc2[nH]cnc12)c1nc2cccc(F)c2c(=O)n1-c1ccccc1 [CAL-101]
T (T=0.5 to <0.7): CI50 growth inhibition (Farage; combination with PD-0332991) | CI50 inhibition (Farage; combination with PD-0332991) | CI50 growth inhibition (SU-DHL-6-epst; combination with Dexamethasone) | CI50 growth inhibition (SU-DHL-6-epst; combination with PCI-32765) | CI50 inhibition (SU-DHL-6-epst; combination with PCI-32765) | CI50 growth inhibition (SU-DHL-6-epst; combination with PD-0332991) | CI50 inhibition (SU-DHL-6-epst; combination with PD-0332991) | CI50 growth inhibition (SU-DHL-10-epst; combination with LEE011) | CI50 inhibition (SU-DHL-10-epst; combination with LEE011) | CI50 growth inhibition (RL; combination with Dexamethasone) | CI50 inhibition (RL; combination with Dexamethasone) | CI50 growth inhibition (RL; combination with LEE011) | CI50 growth inhibition (RL; combination with PCI-32765) | CI50 growth inhibition (WSU-NHL; combination with Dexamethasone) | CI50 inhibition (WSU-NHL; combination with Dexamethasone) | CI50 growth inhibition (WSU-NHL; combination with LEE011) | CI50 inhibition (SU-DHL-4-epst; combination with LEE011) | CI50 inhibition (OCI-Ly7; combination with Dexamethasone) | CI50 inhibition (OCI-Ly7; combination with PD-0332991) | CI50 growth inhibition (DOHH-2; combination with Dexamethasone) | CI50 growth inhibition (DOHH-2; combination with LEE011) | CI50 inhibition (DOHH-2; combination with LEE011) | CI50 growth inhibition (DOHH-2; combination with PD-0332991) | CI50 inhibition (DOHH-2; combination with PD-0332991) | CI50 inhibition (KARPAS-422; combination with Dexamethasone) | CI50 growth inhibition (KARPAS-422; combination with LEE011) | CI50 inhibition (KARPAS-422; combination with LEE011)
W (W=≥1): CI50 growth inhibition (Farage; combination with LEE011) | CI50 inhibition (Farage; combination with LEE011) | CI50 growth inhibition (OCI-Ly7; combination with LEE011) | CI50 growth inhibition (OCI-Ly7; combination with PCI-32765)
A2 (A2=1 to <3): Synergy Score growth inhibition (Farage; combination with PD-0332991) | Synergy Score growth inhibition (SU-DHL-6-epst; combination with Dexamethasone) | Synergy Score inhibition (SU-DHL-6-epst; combination with Dexamethasone) | Synergy Score growth inhibition (SU-DHL-6-epst; combination with LEE011) | Synergy Score inhibition (SU-DHL-6-epst; combination with LEE011) | Synergy Score growth inhibition (SU-DHL-6-epst; combination with PCI-32765) | Synergy Score inhibition (SU-DHL-6-epst; combination with PCI-32765) | Synergy Score growth inhibition (SU-DHL-6-epst; combination with PD-0332991) | Synergy Score inhibition (SU-DHL-6-epst; combination with PD-0332991) | Synergy Score inhibition (SU-DHL-10-epst; combination with Dexamethasone) | Synergy Score inhibition (SU-DHL-10-epst; combination with LEE011) | Synergy Score growth inhibition (SU-DHL-10-epst; combination with PCI-32765) | Synergy Score inhibition (SU-DHL-10-epst; combination with PCI-32765) | Synergy Score inhibition (RL; combination with Dexamethasone) | Synergy Score growth inhibition (RL; combination with LEE011) | Synergy Score growth inhibition (RL; combination with PCI-32765) | Synergy Score inhibition (RL; combination with PCI-32765) | Synergy Score growth inhibition (RL; combination with PD-0332991) | Synergy Score inhibition (RL; combination with PD-0332991) | Synergy Score growth inhibition (WSU-NHL; combination with LEE011) | Synergy Score inhibition (WSU-NHL; combination with LEE011) | Synergy Score growth inhibition (WSU-NHL; combination with PD-0332991) | Synergy Score inhibition (WSU-NHL; combination with PD-0332991) | Synergy Score growth inhibition (SU-DHL-4-epst; combination with LEE011) | Synergy Score inhibition (SU-DHL-4-epst; combination with LEE011) | Synergy Score inhibition (SU-DHL-4-epst; combination with PCI-32765) | Synergy Score inhibition (SU-DHL-4-epst; combination with PD-0332991) | Synergy Score inhibition (OCI-Ly7; combination with Dexamethasone) | Synergy Score growth inhibition (OCI-Ly7; combination with PD-0332991) | Synergy Score inhibition (OCI-Ly7; combination with PD-0332991) | Synergy Score inhibition (DOHH-2; combination with Dexamethasone) | Synergy Score inhibition (DOHH-2; combination with LEE011) | Synergy Score inhibition (DOHH-2; combination with PD-0332991) | Synergy Score inhibition (KARPAS-422; combination with Dexamethasone) | Synergy Score growth inhibition (KARPAS-422; combination with LEE011) | Synergy Score inhibition (KARPAS-422; combination with LEE011) | Synergy Score inhibition (KARPAS-422; combination with PCI-32765) | Synergy Score inhibition (KARPAS-422; combination with PD-0332991)
A3 (A3=>3): Synergy Score growth inhibition (Farage; combination with Dexamethasone) | Synergy Score inhibition (Farage; combination with Dexamethasone) | Synergy Score growth inhibition (Farage; combination with PCI-32765) | Synergy Score inhibition (Farage; combination with PCI-32765) | Synergy Score growth inhibition (SU-DHL-10-epst; combination with Dexamethasone) | Synergy Score growth inhibition (SU-DHL-10-epst; combination with LEE011) | Synergy Score growth inhibition (SU-DHL-10-epst; combination with PD-0332991) | Synergy Score inhibition (SU-DHL-10-epst; combination with PD-0332991) | Synergy Score growth inhibition (RL; combination with Dexamethasone) | Synergy Score growth inhibition (WSU-NHL; combination with Dexamethasone) | Synergy Score inhibition (WSU-NHL; combination with Dexamethasone) | Synergy Score growth inhibition (WSU-NHL; combination with PCI-32765) | Synergy Score inhibition (WSU-NHL; combination with PCI-32765) | Synergy Score growth inhibition (SU-DHL-4-epst; combination with Dexamethasone) | Synergy Score inhibition (SU-DHL-4-epst; combination with Dexamethasone) | Synergy Score growth inhibition (SU-DHL-4-epst; combination with PCI-32765) | Synergy Score growth inhibition (SU-DHL-4-epst; combination with PD-0332991) | Synergy Score growth inhibition (OCI-Ly7; combination with Dexamethasone) | Synergy Score growth inhibition (DOHH-2; combination with Dexamethasone) | Synergy Score growth inhibition (DOHH-2; combination with LEE011) | Synergy Score growth inhibition (DOHH-2; combination with PCI-32765) | Synergy Score inhibition (DOHH-2; combination with PCI-32765) | Synergy Score growth inhibition (DOHH-2; combination with PD-0332991) | Synergy Score growth inhibition (KARPAS-422; combination with Dexamethasone) | Synergy Score growth inhibition (KARPAS-422; combination with PCI-32765) | Synergy Score growth inhibition (KARPAS-422; combination with PD-0332991)
S (S=0.01 to <0.5): CI50 inhibition (Farage; combination with Dexamethasone) | CI50 growth inhibition (Farage; combination with PCI-32765) | CI50 inhibition (Farage; combination with PCI-32765) | CI50 inhibition (SU-DHL-6-epst; combination with Dexamethasone) | CI50 growth inhibition (SU-DHL-6-epst; combination with LEE011) | CI50 inhibition (SU-DHL-6-epst; combination with LEE011) | CI50 growth inhibition (SU-DHL-10-epst; combination with Dexamethasone) | CI50 inhibition (SU-DHL-10-epst; combination with Dexamethasone) | CI50 growth inhibition (SU-DHL-10-epst; combination with PD-0332991) | CI50 inhibition (SU-DHL-10-epst; combination with PD-0332991) | CI50 inhibition (RL; combination with PCI-32765) | CI50 growth inhibition (RL; combination with PD-0332991) | CI50 inhibition (RL; combination with PD-0332991) | CI50 inhibition (WSU-NHL; combination with LEE011) | CI50 growth inhibition (WSU-NHL; combination with PCI-32765) | CI50 inhibition (WSU-NHL; combination with PCI-32765) | CI50 growth inhibition (WSU-NHL; combination with PD-0332991) | CI50 inhibition (WSU-NHL; combination with PD-0332991) | CI50 growth inhibition (SU-DHL-4-epst; combination with Dexamethasone) | CI50 inhibition (SU-DHL-4-epst; combination with Dexamethasone) | CI50 growth inhibition (SU-DHL-4-epst; combination with LEE011) | CI50 growth inhibition (SU-DHL-4-epst; combination with PCI-32765) | CI50 inhibition (SU-DHL-4-epst; combination with PCI-32765) | CI50 growth inhibition (SU-DHL-4-epst; combination with PD-0332991) | CI50 inhibition (SU-DHL-4-epst; combination with PD-0332991) | CI50 growth inhibition (OCI-Ly7; combination with Dexamethasone) | CI50 growth inhibition (OCI-Ly7; combination with PD-0332991) | CI50 growth inhibition (DOHH-2; combination with PCI-32765) | CI50 inhibition (DOHH-2; combination with PCI-32765) | CI50 growth inhibition (KARPAS-422; combination with PCI-32765) | CI50 inhibition (KARPAS-422; combination with PCI-32765) | CI50 growth inhibition (KARPAS-422; combination with PD-0332991) | CI50 inhibition (KARPAS-422; combination with PD-0332991)
A1 (A1=0.0001 to <1): Synergy Score growth inhibition (Farage; combination with LEE011) | Synergy Score inhibition (Farage; combination with LEE011) | Synergy Score inhibition (Farage; combination with PD-0332991) | Synergy Score inhibition (RL; combination with LEE011) | Synergy Score growth inhibition (OCI-Ly7; combination with LEE011) | Synergy Score inhibition (OCI-Ly7; combination with LEE011) | Synergy Score growth inhibition (OCI-Ly7; combination with PCI-32765) | Synergy Score inhibition (OCI-Ly7; combination with PCI-32765)
U (U=0.7 to <1): CI50 growth inhibition (Farage; combination with Dexamethasone) | CI50 growth inhibition (SU-DHL-10-epst; combination with PCI-32765) | CI50 inhibition (SU-DHL-10-epst; combination with PCI-32765) | CI50 inhibition (RL; combination with LEE011) | CI50 inhibition (DOHH-2; combination with Dexamethasone) | CI50 growth inhibition (KARPAS-422; combination with Dexamethasone)

Reference: patent publication US20240325398A1, “COMBINATION THERAPIES” (Infinity Pharmaceuticals, Inc., priority 2014, published 2024)
